Measurements taken from patent US9493451B2 (Bionomics Limited, priority 2011, dated 2016).

Target: T1, Kv1.3 (Homo sapiens, UniProt P22001)
T1 construct: expressed in transfected cells; host or cells: CHO (Kv1.3/CHO)
Test: Electrophysiology: planar patch-clamp of Kv1.3 currents, IC50 from steady state current amplitude
Format: cell-based
Conditions: Kv1.3 electrophysiology, results according to Method D1, read-out: IC50 (Kv1.3 ephys steady state)
Experimental: The inhibition data shown for the compounds of the list below was calculated using the steady state current amplitude at the end of the depolarising pulse in patch clamp evaluations (as described in the Biology Protocols: 1. Electrophysiology).
Kv1.x currents were measured in Kv1.3/CHO or Kv1.5/CHO cells using a planar electrode version (Nanion Technologies GMBH) of the patch-clamp technique. Whole-cell Kv1.x current transients were evoked by 500 ms depolarising voltage pulses to +40 mV from a holding potential of −80 mV applied at 10 s intervals for Kv1.5 and at 30 s intervals for Kv1.3 to allow adequate time for recovery from inactivation. Cells were continuously bathed in a buffered saline solution containing (mM): 160 NaCl, 4.5 KCl, 2 CaCl2, 1 MgCl2, 5 glucose, 10 HEPES, pH 7.4, 290-310 mOsm·Kg^−1. The internal (pipette) solution contained (mM): 10 NaCl, 70 KF, 75 KCl, 2 MgCl2, 10 HEPES, 10 EGTA, pH 7.2, 290-310 mOsm·Kg^−1. Series resistance compensation (60-80%) was applied to cells in which the peak current amplitude exceeded 2 nA.
Compound Preparation and Potency Assessment
Compounds were initially dissolved in DMSO to 10 mM. After further dilution in DMSO, compounds were finally diluted in bath solution 1/200 (to give a final DMSO concentration of 0.5%) and applied directly to the recording chamber. Compounds were added at increasing concentrations allowing ample time for steady state block to be achieved between each concentration. Each compound was tested at 5-6 different concentrations on 2-3 cells. Compound IC50 values were determined by fitting the average normalised reduction of either the current integral or the steady state current amplitude at the end of the 500 ms depolarising pulse obtained at each compound concentration to the Hill equation. The IC50 data reported herein is based on the steady state calculation.

T1 sequence (P22001 whole entry): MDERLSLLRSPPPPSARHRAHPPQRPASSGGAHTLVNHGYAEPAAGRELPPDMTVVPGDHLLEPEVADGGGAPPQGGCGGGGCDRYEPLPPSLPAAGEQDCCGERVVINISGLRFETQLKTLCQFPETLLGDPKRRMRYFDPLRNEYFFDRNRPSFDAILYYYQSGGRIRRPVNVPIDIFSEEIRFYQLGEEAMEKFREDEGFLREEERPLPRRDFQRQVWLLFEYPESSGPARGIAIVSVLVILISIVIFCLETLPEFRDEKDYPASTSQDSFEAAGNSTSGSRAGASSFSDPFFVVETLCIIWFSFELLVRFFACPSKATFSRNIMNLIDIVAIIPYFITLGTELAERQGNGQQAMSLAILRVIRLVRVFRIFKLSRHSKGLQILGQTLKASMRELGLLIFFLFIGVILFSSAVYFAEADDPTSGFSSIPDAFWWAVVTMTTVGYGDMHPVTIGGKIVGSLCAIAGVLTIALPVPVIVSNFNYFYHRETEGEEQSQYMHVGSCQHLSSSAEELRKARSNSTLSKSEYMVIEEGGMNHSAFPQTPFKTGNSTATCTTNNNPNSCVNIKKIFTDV

Row | SMILES | IC50 [nM]
1 | CN1C2CCC1CC(N(C(=O)CS(=O)(=O)c1ccccc1)C(c1ccc(Cl)cc1)C1CC1)C2 (racemic) [Example 93, N-[(4-chlorophenyl)(cyclopropyl)methyl]-N-(8-methyl-8-azabicyclo[3.2.1]oct-3-yl)-2-(phenylsulfonyl)acetamide] | 50 to 200
2 | CC(C(=O)N(Cc1ccccn1)C(c1ccc(Cl)cc1)C1CC1)S(=O)(=O)c1ccc(F)cc1 (single isomer, unassigned) [Example 297] | 200 to 1000
3 | COc1ccccc1[C@H](C)N(Cc1ccccn1)C(=O)CCc1ccc(F)cc1 [Example 55, 3-(4-fluorophenyl)-N-[(1S)-1-(2-methoxyphenyl)ethyl]-N-(pyridin-2-ylmethyl)propanamide] | 200 to 1000
4 | CC(c1ccc2c(c1)[S+]([O-])C(C)(C)O2)N(Cc1ccccn1)C(=O)CCc1cccc(C(F)(F)F)c1 (stereo not drawn) [Example 63, N-[1-(2,2-dimethyl-3-oxido-1,3-benzoxathiol-5-yl)ethyl]-N-(pyridin-2-ylmethyl)-3-[3-(trifluoromethyl)phenyl]propanamide] | 1000 to 2000
5 | CN1C2CCC1CC(N(C(=O)CS(=O)(=O)c1ccc(F)cc1)C(c1ccc(Cl)cc1)C1CC1)C2 (stereo not drawn) [Example 80, N-[(4-chlorophenyl)(cyclopropyl)methyl]-2-[(4-fluorophenyl)sulfonyl]-N-(8-methyl-8-azabicyclo[3.2.1]octan-3-yl)acetamide] | 200 to 1000
6 | CCc1noc(C(C)N(Cc2ccccn2)C(=O)CC(C)c2ccc(F)cc2)n1 (stereo not drawn) [Example 87] | 200 to 1000
7 | COc1ccc(CN(C(=O)CC(C)S(=O)(=O)c2ccc(F)cc2)C(c2ccc(OC(F)F)cc2)C2CC2)cn1 (stereo not drawn) [Example 88, N-{cyclopropyl[4-(difluoromethoxy)phenyl]methyl}-3-[(4-fluorophenyl)sulfonyl]-N-[(6-methoxypyridin-3-yl)methyl]butanamide] | 50 to 200
8 | O=C(N(Cc1ccccn1)[C@@H](c1ccc(OC(F)F)cc1)C1CC1)C1(S(=O)(=O)c2ccc(F)cc2)CC1 [Example 91, N-{cyclopropyl[4-(difluoromethoxy)phenyl]methyl}-1-[(4-fluorophenyl)sulfonyl]-N-(pyridin-2-ylmethyl)cyclopropanecarboxamide] | 200 to 1000
9 | O=C(N(Cc1ccccn1)[C@H](c1ccc(OC(F)F)cc1)C1CC1)C1(S(=O)(=O)c2ccc(F)cc2)CC1 [Example 92, N-{cyclopropyl[4-(difluoromethoxy)phenyl]methyl}-1-[(4-fluorophenyl)sulfonyl]-N-(pyridin-2-ylmethyl)cyclopropanecarboxamide] | 200 to 1000
10 | O=C([C@@H]1C[C@H]1c1ccc(F)cc1)N(Cc1cccnn1)[C@H](c1ccc(OC(F)F)cc1)C1CC1 [Example 98, (1R,2R)-2-(4-Fluoro-phenyl)-cyclopropanecarboxylic acid [(S)-cyclopropyl-(4-difluoromethoxy-phenyl)-methyl]-pyridazin-3-ylmethyl-amide] | 50 to 200
11 | CCS(=O)(=O)c1cccc([C@H](C2CC2)N(Cc2ccc(C(F)(F)F)nc2)C(=O)[C@@H]2C[C@H]2c2ccc(F)cc2)c1 [Example 100, (1R, 2R)-2-(4-Fluoro-phenyl)-cyclopropanecarboxylic acid [(S)-cyclopropyl-(3-ethanesulfonyl-phenyl)-methyl]-(6-trifluoromethyl-pyridin-3-ylmethyl)-amide] | 50 to 200
12 | CC(C)(c1ccccc1)N(Cc1ccccn1)C(=O)CS(=O)(=O)c1ccc(F)cc1 [Example 101, 2-(4-Fluorophenylsulfonyl)-N-(2-phenylpropan-2-yl)-N-(pyridine-2-ylmethyl)acetamide] | 200 to 1000
13 | CC(C)C(c1ccc(OC(F)F)cc1)N(Cc1ccc(F)cn1)C(=O)C1CC1c1ccc(F)cc1 (stereo not drawn) [Example 111] | 50 to 200
14 | CC(C)C(c1ccc(OC(F)F)cc1)N(Cc1cccnn1)C(=O)C1CC1c1ccc(F)cc1 (stereo not drawn) [Example 113] | 200 to 1000
15 | CC(C)C(c1ccc(OC(F)F)cc1)N(Cc1cccnn1)C(=O)C1CC1c1ccc(F)cc1 (stereo not drawn) [Example 114] | 50 to 200

Continued, values first:

Row | IC50 [nM] | SMILES
16 | 50 to 200 | CC(CC(=O)N(Cc1ccc(C(F)(F)F)nc1)C(C)c1ccc2c(c1)CCC2)c1ccc(F)cc1 (single isomer, unassigned) [Compound 39, N-[1-(2,3-dihydro-1H-inden-5-yl)ethyl]-3-(4-fluorophenyl)-N-{[6-(trifluoromethyl)pyridin-3-yl]methyl}butanamide]
17 | 50 to 200 | CC(CC(=O)N(Cc1ccc(C(F)(F)F)nc1)C(C)c1ccc2c(c1)CCC2)c1ccc(F)cc1 (single isomer, unassigned) [Compound 40, N-[1-(2,3-dihydro-1H-inden-5-yl)ethyl]-3-(4-fluorophenyl)-N-{[6-(trifluoromethyl)pyridin-3-yl]methyl}butanamide]
18 | < 50 | C[C@H](CC(=O)N(Cc1ccccn1)C(c1ccc(Cl)cc1)C1CC1)c1ccc(F)cc1 (single isomer, unassigned) [Example 5]
19 | < 50 | C[C@@H](CC(=O)N(Cc1ccccn1)C(c1ccc(Cl)cc1)C1CC1)c1ccc(F)cc1 (single isomer, unassigned) [Example 8]
20 | < 50 | CC(CC(=O)N(Cc1ccccn1)C(c1ccc2c(c1)S(=O)(=O)C(C)(C)O2)C1CC1)c1ccc(F)cc1 (single isomer, unassigned) [Example 74, N-[cyclopropyl(2,2-dimethyl-3,3-dioxido-1,3-benzoxathiol-5-yl)methyl]-3-(4-fluorophenyl)-N-(pyridin-2-ylmethyl)butanamide]
21 | < 50 | C[C@@H](CC(=O)N(Cc1ccccn1)[C@H](c1ccc(Cl)cc1)C1CC1)S(=O)(=O)c1ccc(F)cc1 (single isomer, unassigned) [Example 76, N-[(4-chlorophenyl)(cyclopropyl)methyl]-3-[(4-fluorophenyl)sulfonyl]-N-(pyridin-2-ylmethyl)butanamide]
22 | 50 to 200 | CC(C)[C@@H](c1ccc(F)cc1)N(CCN1CCC(F)CC1)C(=O)C1(S(=O)(=O)c2ccc(F)cc2)CC1 (single isomer, unassigned) [Example 94]
23 | < 50 | O=C(CC1(c2ccc(F)cc2)CC1)N(Cc1ccccn1)[C@@H](c1ccc(Cl)cc1)C1CC1 (single isomer, unassigned) [Example 95, N-[(4-chlorophenyl)(cyclopropyl)methyl]-2-[1-(4-fluorophenyl)cyclopropyl]-N-(pyridin-2-ylmethyl)acetamide]
24 | 50 to 200 | C[C@@H](CC(=O)N(Cc1ccccn1)C1(c2cccc(Br)c2)CC1)c1ccc(F)cc1 (single isomer, unassigned) [Example 96]
25 | < 50 | CCS(=O)(=O)c1cccc([C@@H](C2CC2)N(Cc2ccc(C(F)(F)F)nc2)C(=O)[C@@H]2C[C@H]2c2ccc(F)cc2)c1 (single isomer, unassigned) [Example 99]
26 | < 50 | CC(C(=O)N(Cc1ccccn1)C(c1ccc(Cl)cc1)C1CC1)S(=O)(=O)c1ccc(F)cc1 (single isomer, unassigned) [Example 296]
27 | 50 to 200 | O=C(C1C[C@H]1c1ccc(F)cc1)N(Cc1ccccn1)[C@@H](c1ccc(Cl)cc1)C1CC1 (stereo in doubt) [Example 13, N-[(4-chlorophenyl)(cyclopropyl)methyl]-2-(4-fluorophenyl)-N-(pyridin-2-ylmethyl)cyclopropanecarboxamide]
28 | < 50 | O=C([C@H]1C[C@@H]1c1ccc(F)cc1)N(Cc1ccccn1)[C@@H](c1ccc(Cl)cc1)C1CC1 (stereo in doubt) [Example 14, N-[(4-chlorophenyl)(cyclopropyl)methyl]-2-(4-fluorophenyl)-N-(pyridin-2-ylmethyl)cyclopropanecarboxamide]
29 | 50 to 200 | O=C(C1CC1c1ccc(F)cc1)N(Cc1ccccn1)C(c1ccc(Cl)cc1)C1CC1 (stereo not drawn) [Example 10, N-[(4-chlorophenyl)(cyclopropyl)methyl]-2-(4-fluorophenyl)-N-(pyridin-2-ylmethyl)cyclopropanecarboxamide]
30 | 50 to 200 | COc1ccccc1[C@@H](C)N(Cc1ccccn1)C(=O)CCc1cccc(C(F)(F)F)c1 [Example 61, N-[(1R)-1-(2-methoxyphenyl)ethyl]-N-(pyridin-2-ylmethyl)-3-[3-(trifluoromethyl)phenyl]propanamide]
31 | < 50 | O=C(CC1(c2ccc(F)cc2)CC1)N(Cc1cccnn1)[C@@H](c1ccc(OC(F)F)cc1)C1CC1 [Example 89, N—{(R)-cyclopropyl[4-(difluoromethoxy)phenyl]methyl}-2-[1-(4-fluorophenyl)cyclopropyl]-N-(pyridazin-3-ylmethyl)acetamide]
32 | < 50 | O=C([C@@H]1C[C@H]1c1ccc(F)cc1)N(Cc1cccnn1)[C@@H](c1ccc(OC(F)F)cc1)C1CC1 [Example 97, (1R,2R)-2-(4-Fluoro-phenyl)-cyclopropanecarboxylic acid [(R)-cyclopropyl-(4-difluoromethoxy-phenyl)-methyl]-pyridazin-3-ylmethyl-amide]
33 | < 50 | CC(C)C(c1ccc(OC(F)F)cc1)N(Cc1ccc(F)cn1)C(=O)C1CC1c1ccc(F)cc1 (stereo not drawn) [Example 110]
